# Data taken from patent US7994140B2, “Classes of compounds that interact with GPCRs” (Alchemia Limited, priority 2002, dated 2011).
# Target: T1, MC4 (Homo sapiens, UniProt P32245)
# T1 construct: purchased Perkin Elmer BioSignal; host or cells: HEK 293
# Experiment: GPCR radioligand binding (RLB) assay, melanocortin MC4, [125I]NDP-αMSH
# Settings: 1.0 micromolar compound
# Summary of the method: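 Competition binding against radioligand ([125I]NDP-αMSH for MC4, [125I]SST-14 for SST5) on membranes of HEK 293 cells carrying the human receptor; buffer and incubation time optimized per receptor. Filtration through 0.5% PEI-treated glass fiber, washing, then scintillation counting.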
# T1 sequence (P32245 whole entry): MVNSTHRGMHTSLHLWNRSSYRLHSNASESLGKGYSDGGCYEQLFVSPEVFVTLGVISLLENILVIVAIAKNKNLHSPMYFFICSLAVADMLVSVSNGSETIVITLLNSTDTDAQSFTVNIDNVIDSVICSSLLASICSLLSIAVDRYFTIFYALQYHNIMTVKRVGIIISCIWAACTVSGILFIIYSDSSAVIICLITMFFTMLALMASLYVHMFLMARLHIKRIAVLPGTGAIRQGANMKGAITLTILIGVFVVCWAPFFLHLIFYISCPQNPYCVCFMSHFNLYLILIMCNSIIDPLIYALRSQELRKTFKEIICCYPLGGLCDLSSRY
row,SMILES,MC4 Inhibition at 1.0 Micromolar
1,NCC(=O)NC1O[C@H](CO)[C@@H](O)[C@H](OCc2ccc(Cl)cc2)[C@H]1NC(=O)c1ccccc1 (stereo partly drawn) [Compound 507],+ (Indicates inhibition greater than . . . 50%)
2,CC(=O)N[C@H]1C(NC(=O)CCN)O[C@H](CO)[C@@H](O)[C@@H]1OCc1ccccc1 (stereo partly drawn) [Compound 498],+ (Indicates inhibition greater than . . . 50%)
3,CC(=O)N[C@H]1C(NC(=O)CCN)O[C@H](CO)[C@@H](O)[C@@H]1OCc1ccc(-c2ccccc2)cc1 (stereo partly drawn) [Compound 501],+ (Indicates inhibition greater than . . . 50%)
4,NCCC(=O)NC1O[C@H](CO)[C@@H](O)[C@H](OCc2cccc3ccccc23)[C@H]1NC(=O)c1ccccc1 (stereo partly drawn) [Compound 505],+ (Indicates inhibition greater than . . . 50%)

# Same assay, conditions: 4.0 Micromolar; Example Library 10
row,SMILES,MC4 Inhibition at 4.0 Micromolar
1,"NCCCC(=O)N[C@H]1C(OCc2ccc(Cl)cc2)O[C@H](COCc2ccc3ccccc3c2)[C@@H](O)[C@@H]1OCc1ccc2ccccc2c1 (single isomer, unassigned) [Compound 390]",+ (Indicates inhibition greater than . . . 50%)
2,NCCC(=O)N[C@H]1C(OCc2ccc(Cl)cc2)O[C@H](COCc2ccc3ccccc3c2)[C@@H](O)[C@@H]1OCc1ccc2ccccc2c1 (stereo partly drawn) [Compound 378],+ (Indicates inhibition greater than . . . 50%)
3,"NCCCC(=O)N[C@H]1C(OCc2ccc(Cl)cc2)O[C@H](COCc2ccc(Cl)cc2)[C@@H](O)[C@@H]1OCc1ccc2ccccc2c1 (single isomer, unassigned) [Compound 394]",+ (Indicates inhibition greater than . . . 50%)
4,NCCC(=O)N[C@H]1C(OCc2ccc3ccccc3c2)O[C@H](COCc2ccccc2)[C@@H](O)[C@@H]1OCc1ccc(Cl)cc1 (stereo partly drawn) [Compound 353],+ (Indicates inhibition greater than . . . 50%)
5,"NCCC(=O)N[C@H]1C(OCc2ccc3ccccc3c2)O[C@H](COCc2ccccc2)[C@@H](O)[C@@H]1OCc1ccccc1 (single isomer, unassigned) [Compound 363]",+ (Indicates inhibition greater than . . . 50%)
6,"NCCCC(=O)N[C@H]1C(OCc2ccc3ccccc3c2)O[C@H](COCc2ccc3ccccc3c2)[C@@H](O)[C@@H]1OCc1ccccc1 (single isomer, unassigned) [Compound 373]",+ (Indicates inhibition greater than . . . 50%)
7,NCCC(=O)N[C@H]1C(OCc2ccc3ccccc3c2)O[C@H](COCc2ccc(Cl)cc2)[C@@H](O)[C@@H]1OCc1ccc(Cl)cc1 (stereo partly drawn) [Compound 354],+ (Indicates inhibition greater than . . . 50%)
8,NCCC(=O)N[C@H]1C(OCc2ccc(Cl)cc2)O[C@H](COCc2ccccc2)[C@@H](O)[C@@H]1OCc1ccc(Cl)cc1 (stereo partly drawn) [Compound 376],+ (Indicates inhibition greater than . . . 50%)
9,"NCCCC(=O)N[C@H]1C(OCc2ccc3ccccc3c2)O[C@H](COCc2ccc3ccccc3c2)[C@@H](O)[C@@H]1OCc1ccc(Cl)cc1 (single isomer, unassigned) [Compound 366]",+ (Indicates inhibition greater than . . . 50%)
10,"NCCCC(=O)N[C@H]1C(OCc2ccc3ccccc3c2)O[C@H](COCc2ccc(Cl)cc2)[C@@H](O)[C@@H]1OCc1ccc2ccccc2c1 (single isomer, unassigned) [Compound 370]",+ (Indicates inhibition greater than . . . 50%)

# Same assay, conditions: 4.0 Micromolar; Example Library 11
row,SMILES,MC4 Inhibition at 4.0 Micromolar
1,NCCCC(=O)NC1C(OCc2ccccc2)OC(COCc2ccc3ccccc3c2)C(O)C1OCc1ccccc1 (stereo not drawn) [Compound 411],+ (Indicates inhibition greater than . . . 50%)
2,NCCC(=O)NC1C(OCc2ccc3ccccc3c2)OC(COCc2ccc3ccccc3c2)C(O)C1OCc1ccc(Cl)cc1 (stereo not drawn) [Compound 413],+ (Indicates inhibition greater than . . . 50%)
3,NCCC(=O)NC1C(OCc2ccccc2)OC(COCc2ccc3ccccc3c2)C(O)C1OCc1ccccc1 (stereo not drawn) [Compound 403],+ (Indicates inhibition greater than . . . 50%)
4,NCCCC(=O)NC1C(OCc2ccccc2)OC(COCc2ccc(Cl)cc2)C(O)C1OCc1ccc(Cl)cc1 (stereo not drawn) [Compound 407],+ (Indicates inhibition greater than . . . 50%)
5,NCCCC(=O)NC1C(OCc2ccccc2)OC(COCc2ccc3ccccc3c2)C(O)C1OCc1ccc(Cl)cc1 (stereo not drawn) [Compound 406],+ (Indicates inhibition greater than . . . 50%)
6,NCCCC(=O)NC1C(OCc2ccc3ccccc3c2)OC(COCc2ccc(Cl)cc2)C(O)C1OCc1ccc(Cl)cc1 (stereo not drawn) [Compound 424],+ (Indicates inhibition greater than . . . 50%)
7,NCCC(=O)NC1C(OCc2ccccc2)OC(COCc2ccc3ccccc3c2)C(O)C1OCc1ccc(Cl)cc1 (stereo not drawn) [Compound 397],+ (Indicates inhibition greater than . . . 50%)

# Same assay, conditions: 4.0 Micromolar; Example Library 12
row,SMILES,MC4 Inhibition at 4.0 Micromolar
1,N=C(N)NCC(=O)N[C@H]1C(OCc2ccccc2)O[C@H](COCc2ccc3ccccc3c2)[C@@H](O)[C@@H]1OCc1ccc(-c2ccccc2)cc1 (stereo partly drawn) [Compound 441],+ (Indicates inhibition greater than . . . 50%)
2,N=C(N)NCCC(=O)N[C@H]1C(OCc2ccccc2)O[C@H](COCc2ccc3ccccc3c2)[C@@H](O)[C@@H]1OCc1ccc(-c2ccccc2)cc1 (stereo partly drawn) [Compound 458],+ (Indicates inhibition greater than . . . 50%)
3,N=C(N)NCCC(=O)N[C@H]1C(OCc2ccccc2)O[C@H](COCc2ccc3ccccc3c2)[C@@H](O)[C@@H]1OCc1ccc(Cl)cc1 (stereo partly drawn) [Compound 447],+ (Indicates inhibition greater than . . . 50%)
4,N=C(N)NCCC(=O)N[C@H]1C(OCc2ccccc2)O[C@H](COCc2ccc(Cl)cc2)[C@@H](O)[C@@H]1OCc1ccc2ccccc2c1 (stereo partly drawn) [Compound 456],+ (Indicates inhibition greater than . . . 50%)

# Same assay, conditions: 4.0 Micromolar; Example Library 13
row,SMILES,MC4 Inhibition at 4.0 Micromolar
1,N=C(N)NCCC(=O)N[C@H]1C(OCc2ccc(-c3ccccc3)cc2)O[C@H](COCc2ccc(Cl)cc2)[C@@H](O)[C@H]1OCc1ccc(Cl)cc1 (stereo partly drawn) [Compound 472],+ (Indicates inhibition greater than . . . 50%)
2,N=C(N)NCCCC(=O)NC1C(OCc2ccc(-c3ccccc3)cc2)OC(COCc2ccccc2)C(O)C1OCc1ccccc1 (stereo not drawn) [Compound 497],+ (Indicates inhibition greater than . . . 50%)
3,N=C(N)NCC(=O)N[C@H]1C(OCc2ccc(Cl)cc2)O[C@H](COCc2ccccc2)[C@@H](O)[C@H]1OCc1ccc(Cl)cc1 (stereo partly drawn) [Compound 480],+ (Indicates inhibition greater than . . . 50%)
4,N=C(N)NCC(=O)N[C@H]1C(OCc2ccc(-c3ccccc3)cc2)O[C@H](COCc2ccccc2)[C@@H](O)[C@H]1OCc1ccc(Cl)cc1 (stereo partly drawn) [Compound 464],+ (Indicates inhibition greater than . . . 50%)
5,N=C(N)NCCC(=O)NC1C(OCc2ccc(Cl)cc2)OC(COCc2ccc3ccccc3c2)C(O)C1OCc1ccc(-c2ccccc2)cc1 (stereo not drawn) [Compound 494],+ (Indicates inhibition greater than . . . 50%)
6,N=C(N)NCCC(=O)NC1C(OCc2ccc(Cl)cc2)OC(COCc2ccccc2)C(O)C1OCc1ccc(-c2ccccc2)cc1 (stereo not drawn) [Compound 495],+ (Indicates inhibition greater than . . . 50%)
7,N=C(N)NCC(=O)N[C@H]1C(OCc2ccc(-c3ccccc3)cc2)O[C@H](COCc2ccc(Cl)cc2)[C@@H](O)[C@H]1OCc1ccc(-c2ccccc2)cc1 (stereo partly drawn) [Compound 469],+ (Indicates inhibition greater than . . . 50%)
8,N=C(N)NCC(=O)NC1C(OCc2ccc(Cl)cc2)OC(COCc2ccccc2)C(O)C1OCc1ccc(-c2ccccc2)cc1 (stereo not drawn) [Compound 486],+ (Indicates inhibition greater than . . . 50%)
9,N=C(N)NCC(=O)N[C@H]1C(OCc2ccc(-c3ccccc3)cc2)O[C@H](COCc2ccc(Cl)cc2)[C@@H](O)[C@H]1OCc1ccc(Cl)cc1 (stereo partly drawn) [Compound 465],+ (Indicates inhibition greater than . . . 50%)

# Same assay, conditions: 4.0 micromolar compound
row,SMILES,MC4 Inhibition at 4.0 Micromolar
1,COC1C(O)C(COCc2ccc3ccccc3c2)OC(OCc2ccc(Cl)cc2)C1NC(=O)C1CCCN(C(=N)N)C1 (stereo not drawn) [Compound 344],+ (Indicates inhibition greater than . . . 50%)
2,COC1C(O)C(COCc2ccc3ccccc3c2)OC(OCc2ccc(Cl)cc2)C1NCC(=O)C1CCCN1 (stereo not drawn) [Compound 343],+ (Indicates inhibition greater than . . . 50%)

# Same assay, conditions: 10 micromolar compound; recombinant human receptor membranes (HEK 293)
row,SMILES,MC4 inhibition at 10 micromolar
1,COC1C(O)C(COCc2ccc(-c3ccccc3)cc2)OC(OCc2ccc(Cl)cc2)C1NC(=O)CCCN (stereo not drawn) [Compound 85],+ (Indicates inhibition greater than . . . 50%)
2,CSC1OC(COCc2cccc(N)c2)C(O)C(OCc2ccc(Cl)cc2)C1NC(=O)CCC1CNc2ccccc21 (stereo not drawn) [Compound 332],+ (Indicates inhibition greater than . . . 50%)
3,CO[C@H]1[C@H](O)[C@@H](COCc2ccc(-c3ccccc3)cc2)OC(OCCc2ccccc2)[C@@H]1NC(=O)CCNC(=N)N (stereo partly drawn) [Compound 97],+ (Indicates inhibition greater than . . . 50%)
4,CO[C@H]1[C@H](O)[C@@H](COCc2ccc(Cl)cc2)OC(OCc2ccc(Cl)cc2)[C@@H]1NC(=O)CNC(=N)N (stereo partly drawn) [Compound 92],+ (Indicates inhibition greater than . . . 50%)
5,CO[C@H]1[C@H](O)[C@@H](COCc2ccc3ccccc3c2)OC(OCCc2ccccc2)[C@@H]1NC(=O)CNC(=N)N (stereo partly drawn) [Compound 100],+ (Indicates inhibition greater than . . . 50%)
6,CSC1O[C@H](COCc2ccc(Cl)cc2)[C@@H](O)[C@H](OCc2cccc(N)c2)[C@H]1NC(=O)CCC1CNc2ccccc21 (stereo partly drawn) [Compound 325],+ (Indicates inhibition greater than . . . 50%)
7,COC1C(O)C(COCc2ccc(Cl)cc2)OC(OCc2ccc3ccccc3c2)C1NC(=O)CCNC(=N)N (stereo not drawn) [Compound 76],+ (Indicates inhibition greater than . . . 50%)
8,COC1C(O)C(COCc2ccc(Cl)cc2)OC(OCc2ccccc2)C1NC(=O)CCCN (stereo not drawn) [Compound 81],+ (Indicates inhibition greater than . . . 50%)
9,COC1C(O)C(COCc2ccc3ccccc3c2)OC(OCc2ccc3ccccc3c2)C1NC(=O)CCNC(=N)N (stereo not drawn) [Compound 72],+ (Indicates inhibition greater than . . . 50%)
